Laboratory results from US20110152218A1, “CRYSTALLINE PHOSPHOLIPID, METHOD FOR ITS PRODUCTION AND USE IN TREATING DAMAGED TISSUE” (priority 2008, published 2011).
Entries after “also recorded” stand apart in the source; their conditions may differ.

What was measured:
Type in all cases: cell-based, rabbit
[1] = system: cells derived from the tendon sheath; experiment: WST-1 proliferation assay, tendon sheath cells
Protocol: (§1) Therefore all three-cell types were established and cultured as separate cell strains.
(§2) Tendon derived fibroblasts were cultured in Dulbecco's Modified Eagles Medium (DMEM) with 10% fetal calf serum, 2 mM glutamine, 100 U/ml penicillin and […] streptomycin (NGM).
(§3) A 5 mg/ml solution of the phospholipid prepared according to Example 1 and referred to in this example as “Pumactant” was dissolved in serum free media in a sterile 100 ml bottle incubated at 37° C. and then diluted further to a concentration of 1 mg/ml.
(§4) Fibroblasts derived from tendons were seeded at 5×10^3/well into a 96 microtitre plate (Greiner) and allowed to attach overnight in minimum media (DMEM supplemented with 0.4% FCS) to maintain cells in a healthy but quiescent state. After 24 hrs, the media was aspirated and replaced by test media (minimum media with concentrations of pumactant; or different concentrations of fetal calf serum; or different concentrations of TGF-β1) and cultured for 24, 48 and 72 hours. Cell number was assessed using WST-1 assay (Roche Products Ltd). Test media was removed and the wells washed twice with minimal media, minimal media was replaced and 10 μl WST-1 solution was added to each well. The cells were incubated for 1 hour in standard tissue culture conditions. The absorbance, which related to the number of viable cells converting the reagent to coloured formazan crystals, was read at 450 nm on a Bio-Rad Plate reader. Experiments were performed in triplicate for each cell strain.

[2] = system: cells derived from the surface of the tendon (epitenon); experiment: WST-1 proliferation assay, tendon surface cells
Protocol: as §1, §2, §3, §4

[3] = system: tendon core cells (endotenon); experiment: WST-1 proliferation assay, tendon core cells
Protocol: as §1, §2, §3, §4

[4] = system: collagen type I, collagen type III, fibronectin, PAI-1, tPA gene transcription in surface derived cells; experiment: QRT-PCR gene transcription, surface derived cells; details: time course
Protocol: (§5) Cells were placed in serum free media for 24 hrs prior to stimulation with pumactant or TGF-β1; viability was assessed using Trypan blue (Sigma; data not shown). Quiescent cells were treated with pumactant (1 mg/ml) for 0-24 hrs or TGF-β1 for 0-24 h ours (positive control). Total RNA was isolated from treated and untreated samples using Trizol (Gibco). Quant-iT™ Ribogreen® RNA kit (Invitrogen) was used to determine RNA concentration. First strand cDNA was synthesized using the StrataScript® first-strand synthesis system (Stratagene™) with oligonucleotide dTs (0.5 μg/μl) according to manufacturer's instructions.
(§6) Two μl of the first strand cDNA product was used for amplification in triplicate in a 25 μl reaction solution containing 12.5 μl of SYBR Green PCR Master Mix (Stratagene™, La Jolla, Calif.) and 10 pM of each primer as per manufacturer's instructions. Primer sequences are identified in Table 1. The primer sequences are also listed in the sequence listing which is attached to the specification of the present application and made a part thereof.
(§7) The PCR reaction was performed on a MX3000P (Stratagene, La Jolla, Calif.). The PCR program consisted of an initial denaturation where the reaction was incubated for 10 min at 95° C., the second step the DNA was amplified for 40 cycles of 30 sec at 95° C. annealing of primers for 1 min at 60° C. and an extension at 72° C. for 30 sec. Dissociation curve was performed to ensure no primer-dimers were present at the end of each PCR run.
(§8) The relative expression software tool (REST©) was used for the calculation of relative expression levels in real-time PCR (Pfaffl et al, 2002). This mathematical model is based on the PCR efficiencies and the mean crossing point deviation between the treated and untreated cells. The target gene expression was normalized with two housekeeping genes: GAPDH and ACTB. Statistical analysis of group differences was performed by Pair Wise Fixed Reallocation Randomization Test©, implemented in the REST-XL software (Pfaffl et al, 2002) and the coefficient of variance was given. Sigma Plot was used to illustrate the logarithmic graphs.

[5] = system: collagen type I, collagen type III, fibronectin, PAI-1, tPA gene transcription in sheath derived cells; experiment: QRT-PCR gene transcription, sheath derived cells; details: time course, pumactant 1 mg/ml or TGF-β1, n=3
Protocol: as §5, §6, §7, §8

[6] = system: collagen type I, collagen type III, fibronectin, PAI-1, tPA gene transcription in core derived cells; experiment: QRT-PCR gene transcription, core derived cells; details: 48-hour time course, pumactant 1 mg/ml or TGF-β1 2 ng/ml, n=3
Protocol: Cells were placed in serum free media for 24 hrs prior to stimulation with pumactant or TGF-β1; viability was assessed using Trypan blue (Sigma; data not shown). […] Total RNA was isolated from treated and untreated samples using Trizol (Gibco). Quant-iT™ Ribogreen® RNA kit (Invitrogen) was used to determine RNA concentration. First strand cDNA was synthesized using the StrataScript® first-strand synthesis system (Stratagene™) with oligonucleotide dTs (0.5 μg/μl) according to manufacturer's instructions.
as §6, §7, §8

[7] = pumactant 1 mg/ml or TGF-β1, n=3

Question: What does the source list for “TGF-β1: growth factor used as positive control”?
Answer: cell number of sheath cells compared to control media ([1]; 24 hours, the other / various concentrations): no statistical significance; also recorded: no statistical changes in cell number; proliferation of sheath cells ([1]; 48 hours, any concentration): no statistical significance for any concentration; proliferation of sheath cells ([1]; 72 hours, 0.5 ng/ml of TGF-β1): statistical significant increase; proliferation of surface cells ([2]; 24 hours, over the tested concentrations): no statistical significant difference at any concentration; proliferation of surface cells ([2]; 48 hours, various concentrations of TGF-β1): No concentrations of TGF-β1 showed any statistical increase; also recorded: no statistical significance; proliferation of surface cells compared to minimal media ([2]; 72 hours, 2 ng/ml of TGF-β1, FIG. 24C): statistically significant increase in proliferation; also recorded: increase was identified at 2 ng/ml; proliferation of core cells ([3]; 24 hours, over the tested concentrations, FIG. 25): no statistical increase in proliferation; proliferation of core cells ([3]; 48 hours, various concentrations): no statistical significance; proliferation of core cells ([3]; 72 hours, any concentration, FIG. 27): no statistical significance; PAI-1 gene transcription [4, 7]: up regulation in response to TGF-β1, which was statistically significant at 24 hours for fibronectin (p=0.03) and 4 hours for PAI-1; collagen type III gene transcription [4, 7]: statistically significant down regulation at 1 hrs (*p=0.036), 2 hrs (*p=0.001), 6 hrs (*p=0.038), 16 hrs and 48 hrs; fibronectin gene transcription [4, 7]: up regulation in response to TGF-β1, which was statistically significant at 24 hours for fibronectin; collagen type I gene transcription ([4]; pumactant 1 mg/ml or TGF-β1, vs untreated, normalized with GAPDH and ACTB, n=3): up regulation of Collagen type I gene transcription which was statistically significant at 24 and 48 hours; also recorded: statistically significant up regulation at 24 hours (*p=0.025) and 48 hours; PAI-1 gene transcription [5]: no statistical changes over the whole time course; collagen type I gene transcription [5]: up regulate of Collagen type I gene transcription over the time course though this did not reach statistical significance; collagen type III gene transcription [5]: up regulation, which was statistically significant at 6 hours, 8 hours (p=0.03; FIG. 30), 16 and 24 hours; also recorded: statistically significant up regulation at 6 hrs (*p=0.03), 8 hrs (*p=0.037), 16 hrs (*p=0.012) and 24 hrs; fibronectin gene transcription [5]: no statistical changes over the whole time course; tPA gene transcription [5]: down regulation of gene transcription which was statistically significant at 2 hrs (p=0.013), 4 hours and 24 hours; also recorded: statistically significant down regulation at 2 hrs (*p=0.013), 4 hrs (*p=0.001) and 24 hrs; PAI-1 gene transcription [6]: up regulation of gene transcription at 2 and 4 hours but this was only statistically significant at 2 hours; also recorded: statistically significant increase at 2 hrs; collagen type I gene transcription [6]: no statistical change; collagen type III gene transcription [6]: statistically significant down regulation in the early stages of the time course 2, 6 and 8 hours; also recorded: statistically significant down regulation at 2, 6 and 8 hours; fibronectin gene transcription [6]: at 6 h a statistically significant down regulation (p=0.024), which was later, reversed with a statistically significant up regulation at 24 and 48 hours; also recorded: significant down regulation of fibronectin gene transcription at 6 hours (*p=0.024) and a statistically significant up-regulation at 24 hrs (*p=0.03) and 48 hrs; tPA gene transcription [6]: statistically significant down regulation in gene transcription at 1, 2, 6, 8 and 24 hrs 0.01) and 16 hours
